According to ChEMBL document CHEMBL4364299, “Discovery of a Potent Kelch-Like ECH-Associated Protein 1-Nuclear Factor Erythroid 2-Related Factor 2 (Keap1-Nrf2) Protein-Protein Interaction Inhibitor with Natural Proline Structure as a Cytoprotective Agent against Acetaminophen-Induced Hepatotoxicity” (J Med Chem, 2019):
Activity calls are given as the source filed them. The rule behind the calls is not given here.

Legend:
[1] = target: T1, Nuclear factor erythroid 2-related factor 2 (Homo sapiens) (UniProt Q16236); experiment: Activation of Nrf2 in human L02 cells assessed as increase in HO-1 mRNA expression measured after 12 hrs by trizol reagent based qRT-PCR analysis; type: cell-based
T1 sequence (whole entry): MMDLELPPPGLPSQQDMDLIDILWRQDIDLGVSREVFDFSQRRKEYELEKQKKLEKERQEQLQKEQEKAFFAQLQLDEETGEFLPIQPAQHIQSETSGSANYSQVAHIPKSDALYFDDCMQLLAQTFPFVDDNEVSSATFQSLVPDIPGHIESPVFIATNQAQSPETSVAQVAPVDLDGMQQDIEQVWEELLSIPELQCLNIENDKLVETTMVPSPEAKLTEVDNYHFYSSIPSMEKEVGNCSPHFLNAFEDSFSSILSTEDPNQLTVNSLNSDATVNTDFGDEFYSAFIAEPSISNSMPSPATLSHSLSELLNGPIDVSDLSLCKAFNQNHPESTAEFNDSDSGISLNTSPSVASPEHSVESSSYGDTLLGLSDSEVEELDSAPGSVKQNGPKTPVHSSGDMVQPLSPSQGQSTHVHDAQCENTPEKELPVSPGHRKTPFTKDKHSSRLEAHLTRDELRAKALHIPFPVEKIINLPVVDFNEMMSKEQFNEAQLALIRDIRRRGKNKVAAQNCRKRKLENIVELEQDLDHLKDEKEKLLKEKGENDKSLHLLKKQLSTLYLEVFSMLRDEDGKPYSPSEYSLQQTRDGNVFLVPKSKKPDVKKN

L02 [2] = experiment: Upregulation of HO-1 mRNA expression in human L02 cells harboring Nrf2 siRNA at 10 uM measured after 10 hrs by trizol reagent based qRT-PCR analysis; type: functional, cell-based
[3] = target: T1, Nuclear factor erythroid 2-related factor 2 (Homo sapiens); experiment: Activation of Nrf2 in human L02 cells assessed as increase in HO-1 mRNA expression at 10 uM measured after 8 to 24 hrs by trizol reagent based qRT-PCR analysis; type: cell-based
[4] = target: T1, Nuclear factor erythroid 2-related factor 2 (Homo sapiens); experiment: Activation of Nrf2 in human L02 cells harboring control siRNA assessed as increase in NQO-1 expression at 10 uM measured after 10 hrs by Western blot analysis; type: cell-based
L02 [5] = experiment: Cytoprotective activity against APAP-induced hepatotoxicity in human L02 cells assessed as increase in cell viability at 1 to 20 uM preincubated for 12 hrs followed by APAP addition and measured after 24 hrs by MTT assay; type: functional, cell-based
Mus musculus [6] = experiment: Protection against APAP-induced hepatotoxicity in C57BL/6 mouse assessed as decrease in liver hemorrhage at 10 to 40 mg/kg, ip treated 2 hrs prior to 22 hrs starvation followed by APAP challenge and measured after 6 hrs by H and E staining-based light microscopic analysis; type: functional, organism-based
L02 [7] = experiment: Upregulation of GCLM mRNA expression in human L02 cells harboring Nrf2 siRNA at 10 uM measured after 10 hrs by trizol reagent based qRT-PCR analysis; type: functional, cell-based
Mus musculus [8] = experiment: Protection against APAP-induced hepatotoxicity in C57BL/6 mouse assessed as decrease in HO-1 expression in liver at 10 to 40 mg/kg, ip treated 2 hrs prior to 22 hrs starvation followed by APAP challenge and measured after 6 hrs by Dako/Mayer's hematoxylin staining-based immunohistochemical analysis; type: functional, organism-based
Mus musculus [9] = experiment: Protection against APAP-induced hepatotoxicity in C57BL/6 mouse assessed as increase in GSH/GSSG ratio in liver at 10 to 40 mg/kg, ip treated 2 hrs prior to 22 hrs starvation followed by APAP challenge and measured after 6 hrs; type: functional, organism-based
[10] = target: T1, Nuclear factor erythroid 2-related factor 2 (Homo sapiens); experiment: Activation of Nrf2 (unknown origin) stably transfected in human HepG2-ARE-C8 cells assessed as increase in ARE-driven luciferase activity by luciferase reporter gene assay; type: cell-based
[11] = target: T1, Nuclear factor erythroid 2-related factor 2 (Homo sapiens); experiment: Activation of Nrf2 in human L02 cells harboring control siRNA assessed as increase in HO-1 expression at 10 uM measured after 10 hrs by Western blot analysis; type: cell-based
L02 [12] = settings: Homo sapiens, 5 to 10 uM
Description: Cytoprotective activity against APAP-induced hepatotoxicity in human L02 cells assessed as inhibition of IL1beta production at 5 to 10 uM preincubated for 12 hrs followed by APAP stimulation and measured after 24 hrs by ELISA

L02 [13] = experiment: Cytoprotective activity against APAP-induced oxidative stress in human L02 cells assessed as increase in GSH/GSSG ratio at 5 to 10 uM preincubated for 12 hrs followed by APAP stimulation and measured after 24 hrs; type: functional, cell-based
L02 [14] = experiment: Upregulation of NEFL2L mRNA expression in human L02 cells harboring Nrf2 siRNA at 10 uM measured after 10 hrs by trizol reagent based qRT-PCR analysis; type: functional, cell-based
L02 [15] = experiment: cells; settings: Homo sapiens, L02, read-out: Activity
Description: Cytoprotective activity against APAP-induced apoptosis in human L02 cells assessed as viable cells at 10 uM preincubated for 12 hrs followed by APAP addition and measured after 12 hrs by FITC-Annexin V/propidium iodide staining based flow cytometry (Rvb = 50.6%)

Mus musculus [16] = experiment: Protection against APAP-induced hepatotoxicity in C57BL/6 mouse assessed as decrease in reactive oxygen species level in liver at 10 to 40 mg/kg, ip treated 2 hrs prior to 22 hrs starvation followed by APAP challenge and measured after 6 hrs; type: functional, organism-based
Mus musculus [17] = experiment: Protection against APAP-induced hepatotoxicity in C57BL/6 mouse assessed as decrease in GCLM expression in liver at 10 to 40 mg/kg, ip treated 2 hrs prior to 22 hrs starvation followed by APAP challenge and measured after 6 hrs by Dako/Mayer's hematoxylin staining-based immunohistochemical analysis; type: functional, organism-based
[18] = target: T1, Nuclear factor erythroid 2-related factor 2 (Homo sapiens); experiment: Activation of Nrf2 in human L02 cells harboring control siRNA assessed as increase in HO-1 mRNA expression at 10 uM measured after 10 hrs by trizol reagent based qRT-PCR analysis; type: cell-based
[19] = target: T1, Nuclear factor erythroid 2-related factor 2 (Homo sapiens); experiment: Activation of Nrf2 in human L02 cells assessed as increase in NEFL2L mRNA expression measured after 12 hrs by trizol reagent based qRT-PCR analysis; type: cell-based
Mus musculus [20] = experiment: Protection against APAP-induced hepatotoxicity in C57BL/6 mouse assessed as reduction in liver apoptosis at 10 to 40 mg/kg, ip treated 2 hrs prior to 22 hrs starvation followed by APAP challenge and measured after 6 hrs by TUNEL assay; type: functional, organism-based
L02 [21] = experiment: Upregulation of NEFL2L expression in human L02 cells harboring Nrf2 siRNA at 10 uM measured after 10 hrs by Western blot analysis; type: functional, cell-based
L02 [22] = experiment: Cytoprotective activity against APAP-induced oxidative stress in human L02 cells assessed as decrease in ALP level at 5 to 10 uM preincubated for 12 hrs followed by APAP stimulation and measured after 24 hrs; type: functional, cell-based
Mus musculus [23] = experiment: Protection against APAP-induced hepatotoxicity in C57BL/6 mouse assessed as decrease in Nrf2 expression in liver at 10 to 40 mg/kg, ip treated 2 hrs prior to 22 hrs starvation followed by APAP challenge and measured after 6 hrs by Dako/Mayer's hematoxylin staining-based immunohistochemical analysis; type: functional, organism-based
[24] = target: T1, Nuclear factor erythroid 2-related factor 2 (Homo sapiens); experiment: Activation of Nrf2 in human L02 cells assessed as increase in NQO-1 expression at 10 uM measured after 4 to 72 hrs hrs by Western blot analysis; type: cell-based
[25] = target: T1, Nuclear factor erythroid 2-related factor 2 (Homo sapiens); experiment: Activation of Nrf2 in human L02 cells harboring control siRNA assessed as increase in NEFL2L mRNA expression at 10 uM measured after 10 hrs by trizol reagent based qRT-PCR analysis; type: cell-based
[26] = target: T1, Nuclear factor erythroid 2-related factor 2 (Homo sapiens); experiment: Activation of Nrf2 in human L02 cells assessed as increase in NQO-1 mRNA expression measured after 12 hrs by trizol reagent based qRT-PCR analysis; type: cell-based

SMILES: COc1ccc(S(=O)(=O)N(CC(=O)O)c2ccc(N3CCC[C@H]3C(=O)O)c3ccccc23)cc1
- Activity [1]: Dose-dependent effect
- Activity (L02 [2]): inactive
- Activity [3]: Active
- Activity [4]: Active
- Activity (L02 [5]): Active
- Activity (Mus musculus [6]): Active
- Activity (L02 [7]): inactive
- Activity (Mus musculus [8]): Active
- Activity (Mus musculus [9]): Active
- Activity [10]: Dose-dependent effect
- Activity [11]: Active
- inhibition (L02 [12]): Active
- Activity (L02 [13]): Active
- Activity (L02 [14]): inactive
- viability at 10 µM (L02 [15]): 76%
- Activity (Mus musculus [16]): Active
- Activity (Mus musculus [17]): Active
- Activity [18]: Active
- Activity [19]: Dose-dependent effect
- Activity (Mus musculus [20]): Active
- Activity (L02 [21]): inactive
- Activity (L02 [22]): Active
- Activity (Mus musculus [23]): Active
- Activity [24]: Active
- Activity [25]: Active
- Activity [26]: Dose-dependent effect
